Measured values published in US20120142730A1 (priority 2010, published 2012).

Key:
[1] = tested on: subjects with relapsing remitting multiple sclerosis (RRMS); assay: ALLEGRO phase III trial: disability endpoints (EDSS, MSFC); assay type: in vivo, human; settings: for Patients with confirmed (3 months) EDSS progression: after 24 months
Procedure: Eligible subjects were equally randomized 1:1 into one of the following treatment arms: • 1. […] 21, 2007 (see, page 10, line 5 to page 11, line 3). • 2. Matching placebo for laquinimod arm: one capsule is administered once daily. Secondary endpoints were disability progression as measured by the EDSS and the Multiple Sclerosis Functional Composite (MSFC). Confirmed disability progression was defined as an increase of ≧1.0 EDSS point from baseline if baseline EDSS was between 0 and 5.0, or an increase of ≧0.5 point if baseline EDSS was ≧5.5. In order to confirm EDSS progression, these increases had to be sustained for at least three months. Additional predefined disability endpoints include the proportion of patients without confirmed disability progression at 24 months; confirmed disability progression (defined as change in EDSS scores≧1.0 points for baseline EDSS 0 to 5.0 or ≧5.5) sustained for six months; the accumulation of physical disability as measured by mean EDSS and the mean change in EDSS from baseline to last observed value (LOV). For the MSFC, the measure was the total MSFC z score at 24 months (including patients who terminated after 12 months). The 9-hole peg test (9HPT) and the Paced Auditory Serial Addition Test (PASAT) were performed three times at screening to reduce confounding training effects during the trial. The analysis of the accumulation of physical disability is based on Cox's Proportional Hazard model. The analysis of MSFC is based on baseline-adjusted Analysis of Covariance. The analysis of the secondary MRI endpoints is based on baseline-adjusted Negative Binomial Regression. To control against type-I error, the secondary endpoints were analyzed only after a significant effect was found for the primary endpoint. Likewise, the study's overall type-I error was further controlled in the analysis of the secondary endpoints by applying the following gate-keeping approach: both the cumulative number of new/enlarging T2 and the cumulative number of GdE lesions at months 12 and 24 were tested simultaneously and needed to be statistically significant at p<0.05, or one needed to be significant at p<0.025 if the other endpoint was not statistically significant at the 5% level. If the above condition was met, the study then proceeded to the analysis of the confirmed EDSS progression endpoint, if this endpoint was significant at 5% level, the analysis was done for the total MSFC z-scores. The analysis of risk to confirmed disability progression using the ITT cohort was based on Cox's Proportional Hazard model adjusted to baseline EDSS, log of the prior 2 year number of relapses +1 and geographical region. The MSFC at month 24 was analyzed using a baseline-adjusted ANCOVA (SAS@PROC GLM) with baseline MSFC as 1 degree of freedom covariate and baseline EDSS score, log of the 2-year prior relapse rate +1 and country or geographical region as additional covariates.

[2] = tested on: subjects with relapsing remitting multiple sclerosis (RRMS); assay: ALLEGRO (MS-LAQ-301) phase III trial: confirmed relapse endpoints; assay type: in vivo, human; parameters: key to Annualized relapse rate, adjusted mean (SE): ARR = number of relapses divided by total patient exposure; settings: for Annualized relapse rate, adjusted mean (SE): 24-month treatment period
Source text: The primary endpoint of the study was the number of confirmed relapses during the double-blind treatment period, which corresponds to the annualized relapse rate (ARR—number of relapses divided by total exposure of all patients). Secondary endpoints included disability as measured by Expanded Disability Status Scale (EDSS) changes confirmed at 3 months, and cumulative number of gadolinium enhancing (GdE) and new/enlarging T2 MRI lesions. Eligible subjects were equally randomized 1:1 into one of the following treatment arms: • 1. […] 21, 2007 (see, page 10, line 5 to page 11, line 3). • 2. Matching placebo for laquinimod arm: one capsule is administered once daily. The primary endpoint was the number of confirmed relapses during the double-blind study period. A relapse was defined as the appearance of one or more new neurological abnormalities or the reappearance of one or more previously observed neurological abnormalities lasting for at least 48 hours and after an improved neurological state for at least 30 days. An event was counted as a relapse if the subject's symptoms were accompanied by observed objective neurological changes consistent with at least one of the following: an increase of at least 0.5 in the EDSS score; an increase of one grade in two or more of the seven functional systems; or an increase of two grades in one functional system. Standardized treatment of relapses was intravenous methylprednisolone 1 g/day for up to five consecutive days based on the treating neurologist's decision. The analysis of the total number of confirmed relapses during the study period is based on baseline adjusted Quasi-Likelihood (over-dispersed) Poisson Regression. Using the Poisson regression with the treatment group as a covariate, the ARR of each group was calculated for the intent-to-treat (ITT) cohort as the total number of confirmed relapses for all patients in each group divided by the total patient years in that group. In addition to the treatment group, the following covariates were included: baseline EDSS score, log of the (prior 2-year number of relapses +1) and country or geographical region.

[3] = 0.6 mg daily oral, listed as laquinimod
[4] = 0.6 mg daily oral vs placebo, 24 months
[5] = post-hoc, vs placebo, listed as laquinimod

## CCN(C(=O)c1c(O)c2c(Cl)cccc2n(C)c1=O)c1ccccc1 [Laquinimod, laquinimod]
[1]; 0.6 mg daily oral
  Median EDSS score at LOV: 2.5
  Patients with confirmed (3 months) EDSS progression: 9.8% progressed
[1]; 0.6 mg daily oral vs placebo
  Decrease in the risk for 6 month confirmed EDSS progression: 48%
  Reduction in risk of confirmed progression requiring persistence of EDSS change at the last available visit: 35%
  Time to confirmed (3 Ms) progression EDSS: reduction of risk to progress: 36% reduction of risk
[1]; 0.6 mg daily oral vs placebo, p=0.5893
  Adjusted mean total MSFC z score at 24 months, difference from placebo: no significant differences
[1]; 0.6 mg daily oral vs placebo, listed as laquinimod
  Time to confirmed (3 Ms) progression EDSS: reduction of risk to progress: 36%
[1]; [3]
  Patients with confirmed (3 months) EDSS progression: 9.8%
  MSFC total z score at 24 months (including early terminations after 12 months), mean: 0.056
[1]; 0.6 mg daily oral, baseline adjusted ANCOVA
  Mean EDSS score at LOV: 2.68
[1]; 0.6 mg daily oral, n = 550
  Patients with no confirmed disability progression at LOV: (90.2%)
  Patients with no confirmed disability progression at LOV, number: 496
[1]; post-hoc subgroup analysis, 33/54 patients
  Patients who progressed and also had a relapse during the study: 61.1%
[2]; 0.6 mg daily oral vs placebo
  Annualized rate of relapses requiring hospitalization and/or IV steroids, reduction: 27% reduction
  Increase in the time to first relapse: 28.2%
  Time to 1st confirmed relapse: reduction for the risk of 1st confirmed relapse: 28% reduction for the
[2]; [4]
  Annualized relapse rate, reduction: 23% reduction
  Increase in odds to be relapse free: 55% increase odds to
[2]; 0.6 mg daily oral vs placebo, 24 months, listed as laquinimod
  Increase in odds to be relapse free: 55%
[2]; 0.6 mg daily oral
  Annualized relapse rate, adjusted mean (SE): 0.304
[2]; [3]
  Annualized relapse rate, adjusted mean (SE): 0.304±0.022
[2]; 0.6 mg daily oral, 24 months
  Annualized rate of relapses requiring hospitalization and/or IV steroids, adjusted mean: 0.242
  Relapse-free during study, adjusted proportion: 62.90%
[2]; 0.6 mg daily oral, 24 months, listed as laquinimod
  Relapse-free during study, adjusted proportion: 62.9%
[2]; post-hoc, 0.6 mg daily oral
  ARR 1st year: 0.343
  ARR for dropouts: 0.640
  Annualized rate of relapses requiring IV steroids: 0.263
  Annualized rate of relapses requiring hospitalization: 0.071
  Relapses with full recovery (EDSS before and after attack): 0.155
  Relapses with no recovery (EDSS before and after attack): 0.06
  Unconfirmed relapses: 0.094
[2]; post-hoc, relapse duration >34 days (n~100)
  ARR by median relapse duration: 0.964
[2]; post-hoc, relapse duration >34 days (n~100), vs placebo
  ARR by median relapse duration, reduction: 1.3% reduction
[2]; post-hoc, relapse duration ≦34 days
  ARR by median relapse duration: 0.153
[2]; post-hoc, relapse duration ≦34 days, vs placebo
  ARR by median relapse duration, reduction: 37% reduction
[2]; post-hoc, vs placebo
  ARR 1st year, reduction: 24% reduction
  ARR for dropouts, reduction: 26% reduction
  Relapses requiring IV steroids, reduction: 27% reduction
  Relapses requiring hospitalization, reduction: 38% reduction
  Relapses with full recovery, reduction: 13% reduction
  Relapses with no recovery, reduction: 24% reduction
  Unconfirmed relapses, reduction: 17% reduction
[2]; [5]
  Relapses requiring IV steroids, reduction: 27%
  Relapses requiring hospitalization, reduction: 38%
